Source: ChEMBL document CHEMBL1135870, “4-Aminoquinolines as a novel class of NR1/2B subtype selective NMDA receptor antagonists” (Bioorg Med Chem Lett, 2002)

Assays:
Glutamate NMDA receptor = assay: Binding affinity against N-methyl-D-aspartate glutamate receptor using [3H]25-6981 as radioligand.; assay type: protein-complex assay
[1] = The ionization constant for the compound was tested using a potentiometric method.; assay type: physicochemical
Mus musculus = assay: In vivo effective dose required for 50% inhibition of sound induced seizures upon intraperitoneal dose, 30 min before testing in DBA/2 mice.; assay type: functional; conditions: ip

Row | Ki (Glutamate NMDA receptor) [nM] | pKa [1] | SMILES | ED50 (Mus musculus) [mg/kg]
1 | 4900 | – | CCCNc1cc(-c2ccccc2)nc2ccccc12 | –
2 | 260 | 8.4 | OCC(O)CNc1cc(-c2ccccc2)nc2ccccc12 (stereo not given) | –
3 | 413 | 8.5 | Nc1cc(-c2ccccc2)nc2ccccc12 | –
4 | 75 | – | C[C@H](O)CNc1cc(-c2ccccc2)nc2ccccc12 | –
5 | 7500 | – | COCCNc1cc(-c2ccccc2)nc2ccccc12 | –
6 | 260 | – | CC(O)CNc1cc(-c2ccccc2)nc2ccccc12 (stereo not given) | –
7 | 450 | – | C[C@@H](O)CNc1cc(-c2ccccc2)nc2ccccc12 | –
8 | 7900 | – | CC(=O)CNc1cc(-c2ccccc2)nc2ccccc12 | –
9 | 110 | – | OCCNc1cc(-c2ccccc2)nc2ccccc12 | –

Second part, the compound before the results:

Row | SMILES | Ki (Glutamate NMDA receptor) [nM] | pKa [1] | ED50 (Mus musculus) [mg/kg]
10 | CCCCc1cc(NCC(O)CO)c2ccccc2n1 (stereo not given) | 33000 | – | –
11 | Cc1ccc(-c2cc(NCC(O)CO)c3ccccc3n2)cc1Cl (stereo not given) | 17 | – | –
12 | OCC(O)CNc1cc(-c2ccc3c(c2)CCCC3)nc2ccccc12 (stereo not given) | 22 | – | –
13 | OCC(O)CNc1ccnc2ccccc12 (stereo not given) | > 35000 | – | –
14 | CC(C)Oc1ccc(-c2cc(NCC(O)CO)c3ccccc3n2)cc1 (stereo not given) | 500 | – | –
15 | Cc1ccc(-c2cc(NC[C@H](C)O)c3ccccc3n2)cc1Cl | 10 | – | 12
16 | Cc1ccccc1-c1cc(NCC(O)CO)c2ccccc2n1 (stereo not given) | 3700 | – | –
17 | OCCNc1cc(N2CCc3ccccc3C2)nc2ccccc12 | 3.5 | – | < 12
18 | Cc1cc(NCC(O)CO)c2ccccc2n1 (stereo not given) | > 40000 | – | –
19 | COc1ccc(-c2cc(NCCO)c3ccccc3n2)cc1 | 15 | – | 25
20 | OCC(O)CNc1cc(-c2ccc(Cl)cc2)nc2ccccc12 (stereo not given) | 100 | – | –
21 | COc1ccc(-c2cc(NCC(O)CO)c3ccccc3n2)cc1 (stereo not given) | 19 | – | –
22 | OCC(O)CNc1cc(-c2ccc(O)cc2)nc2ccccc12 (stereo not given) | > 4000 | – | –
23 | COc1ccc(-c2cc(NC[C@H](C)O)c3ccccc3n2)cc1C | 10 | – | 17
24 | COc1ccc(-c2cc(NCC(O)CO)c3ccccc3n2)cc1C (stereo not given) | 26 | – | –
25 | Cc1ccc(-c2cc(NCC(O)CO)c3ccccc3n2)cc1 (stereo not given) | 23 | – | –
26 | OCC(O)CNc1cc(C2CCc3ccccc3C2)nc2ccccc12 (stereo in doubt; 19) | 100 | – | –
27 | OCC(O)CNc1cc(C2CCc3ccccc3C2)nc2ccccc12 (stereo in doubt; 20) | 11 | – | –
28 | c1ccc(-c2ccc3ccccc3n2)cc1 [2-PHENYLQUINOLINE] | > 35000 | 5.2 | –
